Measurements reported in US9556139B2, “6-substituted phenoxychroman carboxylic acid derivatives” (Array BioPharma Inc., priority 2008, dated 2017).

What follows are molecules tested against human DP2 (Homo sapiens (Human), UniProt Q9Y5Y4) (assay: DP-2 Binding Inhibition Assay (3H-PGD2 binding to membranes of K562 cells expressing DP2)). Details: read-out: EC50 (Nm) 1% HSA; inhibition of 3H-PGD2 binding, 1% HSA.
Experimental: DP-2 Binding Inhibition Assay
The coding sequence of human DP2 was introduced into the human Leukemic cell line K562 by electroporation and stable clones expressing DP2 were obtained by limiting dilution followed by cell surface staining with a rat monoclonal antibody specific for human DP2. Membranes were prepared from one of these DP2 expressing clones and used to determine the ability of compounds of the present invention to inhibit binding of prostaglandin D2 (PGD2) to its receptor DP2 in the presence of one or more of the following serum protein concentrations, 0.1% BSA, 1% HSA or 4% HSA, by the following procedure. Membranes (1.25 μg/well for 0.1% BSA and 6 μg/well for 1% or 4% HSA) were mixed with ^3H-labeled PGD2 and various concentrations of test compounds in 150 μL of binding buffer (50 mM Tris-HCl, pH 7.4, 40 mM MgCl2, 0.1% bovine serum albumin, 0.1% NaN3) in 96-well U-bottom polypropylene plates. After incubation for 60 minutes at room temperature, the assay was transferred to a filtration plate (#MAFB; Millipore Corporation, Bedford, Mass.), and washed three times with binding buffer. Radioactivity was measured by a scintillation counter (TopCount; PerkinElmer Life Sciences, Boston, Mass.). Nonspecific binding was determined by incubations in the presence of 1 μM unlabeled PGD2 or 5 μM of a known DP2 antagonist. EC50 values for inhibition of binding were determined for each compound tested from the inflexion point of a standard 4-parameter logistical curve fitted to the values obtained.

Chain of human DP2 (Q9Y5Y4 whole entry): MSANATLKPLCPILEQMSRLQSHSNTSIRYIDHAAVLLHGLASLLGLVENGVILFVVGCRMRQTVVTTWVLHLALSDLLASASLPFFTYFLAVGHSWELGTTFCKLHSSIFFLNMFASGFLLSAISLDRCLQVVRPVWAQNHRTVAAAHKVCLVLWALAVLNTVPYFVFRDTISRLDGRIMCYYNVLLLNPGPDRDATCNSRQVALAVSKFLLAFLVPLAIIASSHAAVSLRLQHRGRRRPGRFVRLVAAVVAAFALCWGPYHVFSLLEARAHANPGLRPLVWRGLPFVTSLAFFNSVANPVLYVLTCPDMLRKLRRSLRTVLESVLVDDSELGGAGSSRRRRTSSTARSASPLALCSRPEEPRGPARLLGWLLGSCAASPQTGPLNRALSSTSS

EC50 [nM]	Compound
22.5	N#Cc1cc2c(cc1Oc1ccc(C(=O)NCCc3ccc(F)cc3)cc1)OCCC2C(=O)O (stereo not drawn) [Example 49, 7-(4-((4-Fluorophenethyl)carbamoyl)phenoxy)-6-cyano-3,4-dihydro-2H-chromene-4-carboxylic acid]
11	N#Cc1cc2c(cc1Oc1ccc(C(=O)NCCc3ccc(C(F)(F)F)cc3)cc1)OCCC2C(=O)O (stereo not drawn) [Example 50, 7-(4-((4-(Trifluoromethyl)phenethyl)carbamoyl)phenoxy)-6-cyano-3,4-dihydro-2H-chromene-4-carboxylic acid]
12.1	N#Cc1cc2c(cc1Oc1ccc(C(=O)NC3CC3c3ccc(Cl)cc3)cc1)OCCC2C(=O)O (stereo not drawn) [Example 51, 7-(4-((2-(4-Chlorophenyl)cyclopropyl)carbamoyl)phenoxy)-6-cyano-3,4-dihydro-2H-chromene-4-carboxylic acid]
90.8	N#Cc1cc2c(cc1Oc1ccc(C(=O)NC3COc4ccccc4C3)cc1)OCCC2C(=O)O (stereo not drawn) [Example 52, 7-(4-(chroman-3-ylcarbamoyl)phenoxy)-6-cyanochroman-4-carboxylic acid]
60.5	COc1ccc2c(c1)CCC(NC(=O)c1ccc(Oc3cc4c(cc3C#N)C(C(=O)O)CCO4)cc1)C2 (stereo not drawn) [Example 53, 6-Cyano-7-(4-(6-methoxy-1,2,3,4-tetrahydronaphthalen-2-ylcarbamoyl)phenoxy)chroman-4-carboxylic acid]
109	N#Cc1cc2c(cc1Oc1ccc(C(=O)NCc3cccc4ccccc34)cc1)OCCC2C(=O)O (stereo not drawn) [Example 54, 6-Cyano-7-(4-(naphthalen-1-ylmethylcarbamoyl)phenoxy)chroman-4-carboxylic acid]
12.1	N#Cc1cc2c(cc1Oc1ccc(C(=O)NCCc3cccc4ccccc34)cc1)OCCC2C(=O)O (stereo not drawn) [Example 55, 6-Cyano-7-(4-(2-(naphthalen-1-yl)ethylcarbamoyl)phenoxy)chroman-4-carboxylic acid]
14.2	N#Cc1cc2c(cc1Oc1ccc(C(=O)NCCc3ccc4ccccc4c3)cc1)OCCC2C(=O)O (stereo not drawn) [Example 56, 6-Cyano-7-(4-(2-(naphthalen-2-yl)ethylcarbamoyl)phenoxy)chroman-4-carboxylic acid]
18.9	CC(C)(C)c1ccc(CCNC(=O)c2ccc(Oc3cc4c(cc3C#N)C(C(=O)O)CCO4)cc2)cc1 (stereo not drawn) [Example 57, 7-(4-(4-tert-Butylphenethylcarbamoyl)phenoxy)-6-cyanochroman-4-carboxylic acid]
36.4	N#Cc1cc2c(cc1Oc1ccc(C(=O)NC3CCc4ccccc4C3)cc1)OCCC2C(=O)O (stereo not drawn) [Example 72, 6-Cyano-7-(4-(1,2,3,4-tetrahydronaphthalen-2-ylcarbamoyl)phenoxy)chroman-4-carboxylic acid]
42.4	N#Cc1cc2c(cc1Oc1ccc(C(=O)NC3Cc4ccc(Cl)cc4C3)cc1)OCCC2C(=O)O (stereo not drawn) [Example 73, 7-(4-(5-Chloro-2,3-dihydro-1H-inden-2-ylcarbamoyl)phenoxy)-6-cyanochroman-4-carboxylic acid]
23.3	N#Cc1cc2c(cc1Oc1ccc(C(=O)Nc3ccc(Cl)cc3)cc1)OCCC2C(=O)O (stereo not drawn) [Example 74, 7-(4-(4-Chlorophenylcarbamoyl)phenoxy)-6-cyanochroman-4-carboxylic acid]
11.9	N#Cc1cc2c(cc1Oc1ccc(C(=O)Nc3ccc(C(F)(F)F)cc3)cc1)OCCC2C(=O)O (stereo not drawn) [Example 75, 6-Cyano-7-(4-(4-(trifluoromethyl)phenylcarbamoyl)phenoxy)chroman-4-carboxylic acid]
6.7	N#Cc1cc2c(cc1Oc1ccc(C(=O)Nc3ccc4ccccc4c3)cc1)OCCC2C(=O)O (stereo not drawn) [Example 76, 6-Cyano-7-(4-(naphthalen-2-ylcarbamoyl)phenoxy)chroman-4-carboxylic acid]

Same assay, conditions: read-out: EC50 (nM) 4% HSA; inhibition of 3H-PGD2 binding, 4% HSA

EC50 [nM]	Compound
356	O=C(NCCCc1ccc(Cl)cc1)c1ccc(Oc2cc3c(cc2Cl)C(C(=O)O)CCO3)cc1 (stereo not drawn) [Example 77, Sodium 6-chloro-7-(4-(3-(4-chlorophenyl)propylcarbamoyl)phenoxy)chroman-4-carboxylate]
681	O=C(NCCCc1ccccc1)c1ccc(Oc2cc3c(cc2Cl)C(C(=O)O)CCO3)cc1 (stereo not drawn) [Example 78, Sodium 6-chloro-7-(4-(3-phenylpropylcarbamoyl)phenoxy)chroman-4-carboxylate]
98.9	O=C(NCCc1ccccc1Cl)c1ccc(Oc2cc3c(cc2Cl)C(C(=O)O)CCO3)cc1 (stereo not drawn) [Example 79, Sodium 6-chloro-7-(4-(2-chlorophenethylcarbamoyl)phenoxy)chroman-4-carboxylate]
165	O=C(NCCc1c(Cl)cccc1Cl)c1ccc(Oc2cc3c(cc2Cl)C(C(=O)O)CCO3)cc1 (stereo not drawn) [Example 80, Sodium 6-chloro-7-(4-(2,6-dichlorophenethylcarbamoyl)phenoxy)chroman-4-carboxylate]
191	O=C(NCCc1ccc(F)cc1F)c1ccc(Oc2cc3c(cc2Cl)C(C(=O)O)CCO3)cc1 (stereo not drawn) [Example 81, Sodium 6-chloro-7-(4-(2,4-difluorophenethylcarbamoyl)phenoxy)chroman-4-carboxylate]
473	O=C(NCCc1c(F)cccc1Cl)c1ccc(Oc2cc3c(cc2Cl)C(C(=O)O)CCO3)cc1 (stereo not drawn) [Example 82, Sodium 6-chloro-7-(4-(2-chloro-6-fluorophenethylcarbamoyl)phenoxy)chroman-4-carboxylate]
569	O=C(NCCc1cccc(O)c1)c1ccc(Oc2cc3c(cc2Cl)C(C(=O)O)CCO3)cc1 (stereo not drawn) [Example 83, Sodium 6-chloro-7-(4-(3-hydroxyphenethylcarbamoyl)phenoxy)chroman-4-carboxylate]
1380	O=C(NCCc1ccc(O)cc1)c1ccc(Oc2cc3c(cc2Cl)C(C(=O)O)CCO3)cc1 (stereo not drawn) [Example 84, Sodium 6-chloro-7-(4-(4-hydroxyphenethylcarbamoyl)phenoxy)chroman-4-carboxylate]
344	O=C(NCCc1ccc(F)cc1)c1ccc(Oc2cc3c(cc2Cl)C(C(=O)O)CCO3)cc1 (stereo not drawn) [Example 85, Sodium 6-chloro-7-(4-(4-fluorophenethylcarbamoyl)phenoxy)chroman-4-carboxylate]
126	O=C(NCCc1cccc2ccccc12)c1ccc(Oc2cc3c(cc2Cl)C(C(=O)O)CCO3)cc1 (stereo not drawn) [Example 86, Sodium 6-chloro-7-(4-(2-(naphthalen-1-yl)ethylcarbamoyl)phenoxy)chroman-4-carboxylate]

Second part, the molecule before the results:

Compound	EC50 [nM]
N#Cc1cc2c(cc1Oc1ccc(C(=O)NC3CC3c3ccc(Cl)cc3)cc1)OCCC2C(=O)O (stereo not drawn) [Example 51, 7-(4-((2-(4-Chlorophenyl)cyclopropyl)carbamoyl)phenoxy)-6-cyano-3,4-dihydro-2H-chromene-4-carboxylic acid]	14.8
N#Cc1cc2c(cc1Oc1ccc(C(=O)NCCc3ccc(-c4ccccc4)cc3)cc1)OCCC2C(=O)O (stereo not drawn) [Example 58, 7-(4-(2-(Biphenyl-4-yl)ethylcarbamoyl)phenoxy)-6-cyanochroman-4-carboxylic acid]	434
O=C(NCCc1ccc(-c2ccccc2)cc1)c1ccc(Oc2cc3c(cc2Cl)C(C(=O)O)CCO3)cc1 (stereo not drawn) [Example 59]	158
COc1ccccc1CCNC(=O)c1ccc(Oc2cc3c(cc2Cl)C(C(=O)O)CCO3)cc1 (stereo not drawn) [Example 63, Sodium 6-chloro-7-(4-(2-methoxyphenethylcarbamoyl)phenoxy)chroman-4-carboxylate]	305
O=C(NCCc1ccccc1OC(F)(F)F)c1ccc(Oc2cc3c(cc2Cl)C(C(=O)O)CCO3)cc1 (stereo not drawn) [Example 64, Sodium 6-chloro-7-(4-(2-(trifluoromethoxy)phenethylcarbamoyl)phenoxy)chroman-4-carboxylate]	153
O=C(NCCc1ccccc1Oc1ccccc1)c1ccc(Oc2cc3c(cc2Cl)C(C(=O)O)CCO3)cc1 (stereo not drawn) [Example 65, Sodium 6-chloro-7-(4-(2-phenoxyphenethylcarbamoyl)phenoxy)chroman-4-carboxylate]	80.4
Cc1ccc(-c2cccc(NC(=O)c3ccc(Oc4cc5c(cc4C#N)C(C(=O)O)CCO5)cc3)c2)cc1C (stereo not drawn) [Example 66, 6-Cyano-7-(4-(3′,4′-dimethylbiphenyl-3-ylcarbamoyl)phenoxy)chroman-4-carboxylic acid]	68.2
N#Cc1cc2c(cc1Oc1ccc(C(=O)Nc3cccc(-c4ccccc4)c3)cc1)OCCC2C(=O)O (stereo not drawn) [Example 67, 7-(4-(Biphenyl-3-ylcarbamoyl)phenoxy)-6-cyanochroman-4-carboxylic acid]	173
N#Cc1cc2c(cc1Oc1ccc(C(=O)Nc3ccc(-c4ccccc4)cc3)cc1)OCCC2C(=O)O (stereo not drawn) [Example 68, 7-(4-(Biphenyl-4-ylcarbamoyl)phenoxy)-6-cyanochroman-4-carboxylic acid]	206
N#Cc1cc2c(cc1Oc1ccc(C(=O)Nc3ccc(-c4ccc(Cl)cc4)cc3)cc1)OCCC2C(=O)O (stereo not drawn) [Example 69, 7-(4-(4′-Chlorobiphenyl-4-ylcarbamoyl)phenoxy)-6-cyanochroman-4-carboxylic acid]	240
Cc1nccc(-c2cccc(NC(=O)c3ccc(Oc4cc5c(cc4C#N)C(C(=O)O)CCO5)cc3)c2)n1 (stereo not drawn) [Example 70, 6-Cyano-7-(4-(3-(2-methylpyrimidin-4-yl)phenylcarbamoyl)phenoxy)chroman-4-carboxylic acid]	995
O=C(Nc1ccc(F)c(-c2ccc(Cl)cc2)c1)c1ccc(Oc2cc3c(cc2Cl)C(C(=O)O)CCO3)cc1 (stereo not drawn) [Example 71, 6-Chloro-7-(4-(4′-chloro-6-fluorobiphenyl-3-ylcarbamoyl)phenoxy)chroman-4-carboxylic acid]	119
